Assay results: PMC6993587, “Detection of EXP1-Specific CD4+ T Cell Responses Directed Against a Broad Range of Epitopes Including Two Promiscuous MHC Class II Binders During Acute Plasmodium falciparum Malaria” (Frontiers in Immunology, 2020)
Ends that are not written are not given here.

Assays:
Assay in all cases: In vitro HLA binding assay with purified HLA-DR molecules
HLA-DR DRB1*04:05 = HLA-DR DRB1*04:05 (Homo sapiens, UniProt P01903+P01911, A100R/A169T/D86S/F76Y/I96L/K127E/L162R/M171V/N62H/P40V/Q125Y/R42H/S133A/S149N/S66Y/V115G/V209L/W38E); conditions: purified HLA-DR molecule; high affinity binding = IC50 <1,000 nM
Experimental: (§1) In vitro binding assays with 14 of the peptides that elicited a response were performed using purified HLA-DR molecules, as previously described (Table 3) ([37]). MHC class II in silico binding predictions were defined, using the IEDB analysis resource ([38]–[40]), combining predictions from the ANN ([41], [42]) and SMM ([43]) algorithms (Supplementary Table 2A).
(§2) To test this hypothesis, we measured the in vitro capacity of the most frequently recognized EXP1 peptides to bind to a panel of 17 of the most prevalent human HLA-DR molecules, since the majority of HLA class II restricted CD4+ T cell responses are presented by these molecules ([49], [50]). Peptides with an IC50 of 1,000 nM or lower, a threshold previously found associated with the vast majority of HLA class II-restricted T cell epitopes, were considered binders to the respective DR molecule ([51]–[53]). […] These include EXP1-P14 which bound to five, EXP1-P15 to 13, EXP1-P16 to 10 and EXP1-P17 to nine different HLA molecules (Table 3).

HLA-DR DRB1*15:01 = HLA-DR DRB1*15:01 (Homo sapiens, UniProt P01903+P01911); conditions: purified HLA-DR molecule; high affinity binding = IC50 <1,000 nM
Experimental: as §1, §2

HLA-DR DRB1*04:01 = HLA-DR DRB1*04:01 (Homo sapiens, UniProt P01903+P01911, A100K/A169T/F76Y/I96L/K127E/L162R/M171V/N62H/P40V/Q125Y/R42H/S133A/S149N/S66Y/V115G/V209L/W38E); conditions: purified HLA-DR molecule; high affinity binding = IC50 <1,000 nM
Experimental: as §1, §2

HLA-DR DRB1*07:01 = HLA-DR DRB1*07:01 (Homo sapiens, UniProt P01903+P01911, A100R/A102G/A103Q/D57E/D86V/E43K/F76Y/K127E/L162R/M171V/P40G/Q125H/Q99D/R33Q/R42Y/R54Q/S133A/S66F/T210M/V115G/Y107V/Y59L/Y89S); conditions: purified HLA-DR molecule; high affinity binding = IC50 <1,000 nM
Experimental: as §1, §2

HLA-DR DRB1*01:01 = HLA-DR DRB1*01:01 (Homo sapiens, UniProt P01903+P01911, A100R/D57E/F55L/F60I/F76Y/I96L/L162R/M171V/P40L/Q125E/R42F/V115G/Y59C); conditions: purified HLA-DR molecule; high affinity binding = IC50 <1,000 nM
Experimental: as §1, §2

HLA-DR DRB3*02:02 = HLA-DR DRB3*02:02 (Homo sapiens, UniProt P01903+P79483, A212P/D57E/F66Y/L67A/R103Q/R218S/R40L/S89Y/T80R/V86D/Y55F/Y59H); conditions: purified HLA-DR molecule; high affinity binding = IC50 <1,000 nM
Experimental: as §1, §2

HLA-DR DRB1*10:01 = HLA-DR DRB1*10:01 (Homo sapiens, UniProt P01903+P01911, A100R/A169T/D57E/F55L/F60V/F69Y/F76Y/I96L/L162R/M171V/P40V/Q260P/Q39E/Q99R/R195Q/R42F/S149N/S66Y/T210M/V115G/V67A/W38E/Y59R/Y61H); conditions: purified HLA-DR molecule; high affinity binding = IC50 <1,000 nM
Experimental: as §1, §2

HLA-DR DRB1*13:01 = HLA-DR DRB1*13:01 (Homo sapiens, UniProt P01903+P01911, A100E/A169T/K41T/L162R/M171V/P40S/Q125H/Q178H/Q39Y/Q99D/R42S/S66N/T262R/W38E/Y61H); conditions: purified HLA-DR molecule; high affinity binding = IC50 <1,000 nM
Experimental: as §1, §2

HLA-DR DRB3*01:01 = HLA-DR DRB3*01:01 (Homo sapiens, UniProt P01903+P79483); conditions: purified HLA-DR molecule; high affinity binding = IC50 <1,000 nM
Experimental: as §1, §2

HLA-DR DRB5*01:01 = HLA-DR DRB5*01:01 (Homo sapiens, UniProt P01903+Q30154); conditions: purified HLA-DR molecule; high affinity binding = IC50 <1,000 nM
Experimental: as §1, §2

HLA-DR DRB1*09:01 = HLA-DR DRB1*09:01 (Homo sapiens, UniProt P01903+P01911, A100R/A103E/D57H/D86V/F55Y/F60I/F76Y/I96F/K127E/L162R/M171V/P40D/Q125H/Q99R/R33Q/R42F/S133A/S66N/T210M/V115G/W38K/Y107V/Y59G/Y89S)
HLA-DR DRB1*08:02 = HLA-DR DRB1*08:02 (Homo sapiens, UniProt P01903+P01911, A100R/A103L/A169T/F76Y/H45Y/I96F/K41T/L162R/M171V/P40S/Q125H/Q178H/Q39Y/Q99D/R218S/R42G/S66Y/V115G/W38E); conditions: purified HLA-DR molecule; high affinity binding = IC50 <1,000 nM
Experimental: as §1, §2

HLA-DR DRB1*03:01 = HLA-DR DRB1*03:01 (Homo sapiens, UniProt P01903+P01911, A100K/A102G/A103R/A169T/F55Y/I96L/K41T/L162R/M171V/P40S/Q125H/Q178H/Q39Y/R42S/S66N/T106N/T262R/W38E/Y61H); conditions: purified HLA-DR molecule; high affinity binding = IC50 <1,000 nM
Experimental: as §1, §2

HLA-DR DRB1*11:01 = HLA-DR DRB1*11:01 (Homo sapiens, UniProt P01903+P01911, A100R/A169T/A87E/I96F/K41T/L162R/M171V/P40S/Q125H/Q178H/Q39Y/Q99D/R42S/S66Y/T262R/V115G/W38E); conditions: purified HLA-DR molecule; high affinity binding = IC50 <1,000 nM
Experimental: as §1, §2

HLA-DR DRB1*04:04 = HLA-DR DRB1*04:04 (Homo sapiens, UniProt P01903+P01911, A100R/A169T/F76Y/I96L/K127E/L162R/M171V/N62H/P40V/Q125Y/R42H/S133A/S149N/S66Y/V209L/W38E); conditions: purified HLA-DR molecule; high affinity binding = IC50 <1,000 nM
Experimental: as §1, §2

HLA-DR DRB4*01:01 = HLA-DR DRB4*01:01 (Homo sapiens, UniProt P01903+P13762, G164S); conditions: purified HLA-DR molecule; high affinity binding = IC50 <1,000 nM
Experimental: as §1, §2

HLA-DR DRB1*13:02 = HLA-DR DRB1*13:02 (Homo sapiens, UniProt P01903+P01911, A100E/A169T/K41T/L162R/M171V/P40S/Q125H/Q178H/Q39Y/Q99D/R42S/S66N/T262R/V115G/W38E/Y61H); conditions: purified HLA-DR molecule; high affinity binding = IC50 <1,000 nM
Experimental: as §1, §2

Sequence of HLA-DR DRB1*11:01 (P01903 26-254 limits assumed, other chains not shown): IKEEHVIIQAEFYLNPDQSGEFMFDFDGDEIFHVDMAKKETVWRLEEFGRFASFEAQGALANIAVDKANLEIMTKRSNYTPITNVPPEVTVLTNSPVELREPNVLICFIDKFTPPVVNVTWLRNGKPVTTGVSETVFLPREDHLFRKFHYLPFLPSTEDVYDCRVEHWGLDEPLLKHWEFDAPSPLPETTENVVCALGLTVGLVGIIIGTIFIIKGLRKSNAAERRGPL
Sequence of HLA-DR DRB3*02:02 (P01903 26-254 limits assumed): as the sequence (P01903 26-254 limits assumed, other chains not shown) above
Sequence of HLA-DR DRB3*02:02 (P79483 30-266 R40L/Y55F/D57E/Y59H/F66Y/L67A/T80R/V86D/S89Y/R103Q/A212P/R218S limits assumed): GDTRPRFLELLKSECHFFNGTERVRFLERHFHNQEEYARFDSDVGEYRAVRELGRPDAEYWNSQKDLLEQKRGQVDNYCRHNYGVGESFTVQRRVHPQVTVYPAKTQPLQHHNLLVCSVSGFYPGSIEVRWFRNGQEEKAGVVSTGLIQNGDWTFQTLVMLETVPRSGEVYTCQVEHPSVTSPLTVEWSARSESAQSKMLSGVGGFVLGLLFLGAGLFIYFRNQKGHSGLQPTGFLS
Sequence of HLA-DR DRB1*13:02 (P01903 26-254 limits assumed, other chains not shown): as the sequence (P01903 26-254 limits assumed, other chains not shown) above
Sequence of HLA-DR DRB1*03:01 (P01903 26-254, other chains not shown): as the sequence (P01903 26-254 limits assumed, other chains not shown) above

Compound | IC50 (HLA-DR DRB1*04:05) [nM] | IC50 (HLA-DR DRB1*15:01) [nM] | IC50 (HLA-DR DRB1*04:01) [nM] | IC50 (HLA-DR DRB1*07:01) [nM] | IC50 (HLA-DR DRB1*01:01) [nM] | IC50 (HLA-DR DRB3*02:02) [nM] | IC50 (HLA-DR DRB1*10:01) [nM] | IC50 (HLA-DR DRB1*13:01) [nM] | IC50 (HLA-DR DRB3*01:01) [nM] | IC50 (HLA-DR DRB5*01:01) [nM] | IC50 (HLA-DR DRB1*09:01) [nM] | IC50 (HLA-DR DRB1*08:02) [nM] | IC50 (HLA-DR DRB1*03:01) [nM] | IC50 (HLA-DR DRB1*11:01) [nM] | IC50 (HLA-DR DRB1*04:04) [nM] | IC50 (HLA-DR DRB4*01:01) [nM] | IC50 (HLA-DR DRB1*13:02) [nM]
VEVNKRKSKYKLATS [EXP1-P14] | 83 | 6100 | 58 | 8300 | 2350 | 5840 | 295 | 5740 | 13900 | 89 | 77 | – | – | – | – | – | –
SKKKNKKGSGEPLID [EXP1-P08] | – | – | – | – | – | – | – | – | – | – | – | 30000 | – | – | – | – | –
KLATSVLAGLLGVVS [EXP1-P16] | 539 | 2270 | 380 | 133 | 11 | 481 | 152 | 32400 | 6100 | 244 | 1360 | 1150 | 10800 | 810 | 454 | 567 | –
LGVVSTVLLGGVGLV [EXP1-P18] | 5020 | 300 | 2050 | 433 | 19 | – | 1890 | 8560 | 13500 | 2470 | 491 | 1810 | – | 6630 | 806 | 194 | 3230
RKSKYKLATSVLAGLL [EXP1-P15] | 7.4 | 195 | 1.2 | 1.4 | 1.1 | 2 | 1.8 | – | 47 | 1 | 3.9 | 11900 | 5820 | 7 | 48 | 230 | 39000
KEEELVEVNKRKSKY [EXP1-P13] | – | – | – | – | – | – | – | 1190 | – | 1120 | – | – | – | 142 | – | 17900 | –
CC(C)C[C@H](NC(=O)CNC(=O)[C@@H](NC(=O)CNC(=O)CNC(=O)[C@H](CC(C)C)NC(=O)[C@H](CC(C)C)NC(=O)[C@@H](NC(=O)[C@@H](N)[C@@H](C)O)C(C)C)C(C)C)C(=O)N[C@H](C(=O)N[C@@H](CC(C)C)C(=O)N[C@@H](Cc1ccc(O)cc1)C(=O)N[C@@H](CC(N)=O)C(=O)N[C@H](C(=O)N[C@@H](CCC(=O)O)C(=O)O)[C@@H](C)O)C(C)C [EXP1-P19] | 4950 | 219 | 2440 | 3950 | 8.6 | – | 34000 | 7440 | – | 1180 | 4450 | – | – | – | 20100 | 8280 | –
